Measurements published in patent publication US6358883B1, “Pesticidal and parasiticidal use of 1-aryl-1-(substituted thio, sulfinyl and sulfonyl)-2-nitroethane compounds” (American Cyanamid Company, priority 1998, dated 2002).

Assays:
Type in all cases: in vivo
[1] = tested on: C. elegans (Bristol strain); assay: Evaluation of test compounds against C. elegans (motility, 96-well plate); design: key: 9=complete kill in 4 hours; 8=complete kill in 24 hours; 7=markedly reduced motility in approximately 95% of worms in 24 hours; 0=normal motility, same as controls; conditions: motility at 4 and 24 hours
Procedure, shortened: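 Bristol-strain C. elegans in Na buffer added to wells containing dried compound (applied in 80% acetone) and incubated at 20 °C. Motility of adults and larvae scored subjectively but semi-quantitatively under a dissecting microscope at 4 and 24 h after immersion, plates tapped before reading.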

[2] = tested on: M. incognita (Root Knot Nematode) larvae; assay: Evaluation of test compounds against M. incognita larvae in microtiter plate wells (movement score); conditions: larvae scored for movement after 20-24 hours; further: key: A score of '9' indicates inactive worms with a straight, sticklike morphology; A score of '8' indicates inactive worms with a limp, curled or curved morphology; A score of '7' indicates dead/paralyzed worms after 72 hours
Procedure, shortened: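 Newly emerged M. incognita larvae in S Medium (buffered salt solution), 50-65 worms per well, exposed to test compounds in sealed microtiter wells. Movement scored after 20-24 h incubation; wells with obviously dead/paralyzed larvae scored positive. A score of "7" denotes dead/paralyzed worms after […].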

[3] = tested on: Spodoptera eridania, eggs-southern armyworm (SAW-Eggs); assay: Southern armyworm eggs (SAW-Eggs) treated diet test; design: key: 0 = no effect; 1 = 10-25% kill; 2 = 26-35% kill; 3 = 36-45% kill; 4 = 46-55% kill; 5 = 56-65% kill; 6 = 66-75% kill; 7 = 76-85% kill; 8 = 86-99% kill; 9 = 100% kill; conditions: mortality after 7 days
Description: (§1) Test solutions are prepared by dissolving the test compound in a 35% acetone in water mixture to give a concentration of 10,000 ppm. Subsequent dilutions are made with water as needed. Spodoptera eridania, Eggs-southern Armyworm and Diabrotica undecimpunctata howardi, Eggs-southern Corn Rootworm (SAW-Eggs) and (SCR-Eggs) Wells containing artificial diet are treated with the test solutions and dried. The appropriate insect eggs are then placed in the wells. The wells are covered with vented, adhesive, clear plastic covers. After 7 days, mortality counts are made. [table]

[4] = tested on: Diabrotica virgifera virgifera Leconte, 2nd instar western corn rootworm (WCR); assay: Western corn rootworm (WCR) soil test; design: key: 0 = no effect; 1 = 10-25% kill; 2 = 26-35% kill; 3 = 36-45% kill; 4 = 46-55% kill; 5 = 56-65% kill; 6 = 66-75% kill; 7 = 76-85% kill; 8 = 86-99% kill; 9 = 100% kill
Procedure, shortened: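 Compound in 35% acetone/water applied to talc at 1.25 mg active ingredient per jar (about 50 kg/ha), solvent evaporated, then mixed with millet seed and moist soil. Ten 2nd-instar larvae per jar; mortality counted after 5 days, missing larvae scored dead.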

[5] = tested on: Tetranychus urticae (OP-resistant strain), 2-spotted spider mite (TSM); assay: 2-spotted spider mite (TSM) plant dip test; design: key: 0 = no effect; 1 = 10-25% kill; 2 = 26-35% kill; 3 = 36-45% kill; 4 = 46-55% kill; 5 = 56-65% kill; 6 = 66-75% kill; 7 = 76-85% kill; 8 = 86-99% kill; 9 = 100% kill; conditions: mortality after 2 days
Procedure, shortened: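 OP-resistant mites (~100 per leaf) were transferred onto Sieva lima bean primary leaves about 2 h before treatment. Infested plants were dipped for 3 s in compound from a 10,000 ppm stock in 35% acetone/water, diluted with water. Mortality was counted after 2 days.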

[6] = tested on: Spodoptera eridania, 2nd instar larvae, southern armyworm (SAW); assay: Southern armyworm (SAW) leaf dip test; design: key: 0 = no effect; 1 = 10-25% kill; 2 = 26-35% kill; 3 = 36-45% kill; 4 = 46-55% kill; 5 = 56-65% kill; 6 = 66-75% kill; 7 = 76-85% kill; 8 = 86-99% kill; 9 = 100% kill
Procedure, shortened: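 Compound is dissolved at 10,000 ppm in 35% acetone/water, then diluted with water. Lima bean leaves are dipped for 3 seconds, dried and placed with ten 2nd instar larvae on damp filter paper. Mortality, reduced feeding and molting interference are scored at 5 days.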

[7] = tested on: Aphis gossypii, cotton aphid (CA); assay: Cotton aphid (CA) cotyledon dip test; design: key: 0 = no effect; 1 = 10-25% kill; 2 = 26-35% kill; 3 = 36-45% kill; 4 = 46-55% kill; 5 = 56-65% kill; 6 = 66-75% kill; 7 = 76-85% kill; 8 = 86-99% kill; 9 = 100% kill; conditions: mortality after 5 days
Procedure, shortened: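 Cotyledon-stage cotton plants infested overnight via a heavily infested leaf, then dipped in test solution (compound in 35% acetone/water, diluted with water) and dried. Mortality counted after 5 days.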

[8] = tested on: Diabrotica undecimpunctata howardi, eggs-southern corn rootworm (SCR-Eggs); assay: Southern corn rootworm eggs (SCR-Eggs) treated diet test; design: key: 0 = no effect; 1 = 10-25% kill; 2 = 26-35% kill; 3 = 36-45% kill; 4 = 46-55% kill; 5 = 56-65% kill; 6 = 66-75% kill; 7 = 76-85% kill; 8 = 86-99% kill; 9 = 100% kill; conditions: mortality after 7 days
Description: as §1

| Structure (SMILES) | Rating Against C. elegans (150 ppm) [1] | M. incognita (150 ppm) score [2] | SAW Eggs (300 ppm) rating [3] | WCR (50 ppm) rating [4] | TSM (300 ppm) rating [5] | SAW (300 ppm) rating [6] | CA (300 ppm) rating [7] | SCR Eggs (1000 ppm) rating [8] |
| --- | --- | --- | --- | --- | --- | --- | --- | --- |
| CC(C)CCCCCOC(=O)CSC(C[N+](=O)[O-])c1ccc(F)cc1 (centres unmarked) [Example 11] | 0 | 0 | 0 | 0 | 0 | 0 | 0 | – |
| CCCCC(CC)COC(=O)CSC(C[N+](=O)[O-])c1ccc(F)cc1 (centres unmarked) [Example 12] | 0 | 0 | 0 | 0 | 0 | 0 | 0 | – |
| O=[N+]([O-])CC(SCc1ccccc1)c1ccc(F)cc1 (centres unmarked) [Example 13] | 8 | 0 | 0 | 0 | 0 | 0 | 7 (7 = 76-85% kill) | – |
| CCCSC(C[N+](=O)[O-])c1ccc(F)cc1 (centres unmarked) [Example 14] | 0 | 0 | 0 | 0 | 0 | 0 | 0 | – |
| COC(=O)CSC(C[N+](=O)[O-])c1ccc(F)cc1 (centres unmarked) [Example 15] | 9 | 9 | 0 | 3 (3 = 36-45% kill) | 0 | 0 | 0 | – |
| CCOC(=O)CSC(C[N+](=O)[O-])c1ccc(F)cc1 (centres unmarked) [Example 16] | 8 | 9 | 0 | 0 | 0 | 0 | 0 | – |
| CCCCOC(=O)CSC(C[N+](=O)[O-])c1ccc(F)cc1 (centres unmarked) [Example 17] | 8 | 9 | 0 | 0 | 5 (5 = 56-65% kill) | 0 | 0 | – |
| COC(=O)CSC(C[N+](=O)[O-])c1cccc([N+](=O)[O-])c1 (centres unmarked) [Example 138] | – | 0 | 0 | 0 | 0 | 0 | 0 | 0 |
| O=C(O)CSC(C[N+](=O)[O-])c1cccnc1 (centres unmarked) [Example 179] | – | 9 | 0 | 0 | 0 | 0 | 0 | 0 |
| O=C(O)CSC(C[N+](=O)[O-])c1cccs1 (centres unmarked) [Example 181] | – | 9 | 9 (9 = 100% kill) | 0 | 0 | 0 | 0 | 0 |
| COC(=O)CSC(C[N+](=O)[O-])c1cccs1 (centres unmarked) [Example 182] | – | 9 | 0 | 0 | 0 | 0 | 0 | 0 |
| CCOC(=O)CSC(C[N+](=O)[O-])c1cccs1 (centres unmarked) [Example 183] | – | 9 | 0 | 0 | 0 | 0 | 0 | 0 |
| CCCCOC(=O)CSC(C[N+](=O)[O-])c1cccs1 (centres unmarked) [Example 184] | – | 9 | 9 (9 = 100% kill) | 0 | 0 | 0 | 0 | 0 |
| O=C(CSC(C[N+](=O)[O-])c1cccs1)OCc1ccccc1 (centres unmarked) [Example 185] | – | 9 | 0 | 0 | 0 | 0 | 0 | 0 |
| CCCSC(C[N+](=O)[O-])c1cccs1 (centres unmarked) [Example 186] | – | 0 | 0 | 4 (4 = 46-55% kill) | 0 | 4 (4 = 46-55% kill) | 0 | 0 |
| C=CCSC(C[N+](=O)[O-])c1cccs1 (centres unmarked) [Example 187] | – | 9 | 0 | 0 | 0 | 0 | 0 | 0 |
| O=[N+]([O-])CC(SCc1ccccc1)c1cccs1 (centres unmarked) [Example 188] | – | 9 | 0 | 3 (3 = 36-45% kill) | 0 | 0 | 0 | 0 |
| O=C(O)CSC(C[N+](=O)[O-])c1cc(Br)cs1 (centres unmarked) [Example 190] | – | – | 0 | 0 | 0 | 0 | 0 | 0 |
| COC(=O)CSC(C[N+](=O)[O-])c1cc(Br)cs1 (centres unmarked) [Example 191] | – | – | 0 | 0 | 0 | 0 | 0 | 0 |
| CCOC(=O)CSC(C[N+](=O)[O-])c1cc(Br)cs1 (centres unmarked) [Example 192] | – | – | 0 | 0 | 0 | 0 | 0 | 0 |
| CCCOC(=O)CSC(C[N+](=O)[O-])c1cc(Br)cs1 (centres unmarked) [Example 193] | – | – | 0 | 0 | 0 | 0 | 0 | 0 |
| CCCCOC(=O)CSC(C[N+](=O)[O-])c1cc(Br)cs1 (centres unmarked) [Example 194] | – | – | 0 | 0 | 0 | 0 | 0 | 0 |
| O=[N+]([O-])CC(SCc1ccccc1)c1cc(Br)cs1 (centres unmarked) [Example 195] | – | – | 0 | 0 | 0 | 0 | 0 | 0 |
